According to US20080255244A1, “CaM Kinase II Inhibitor Improves Retinoic Acid Therapy and Inhibits the Proliferation of Myeloid Leukemia Cells” (Fred Hutchinson Cancer Research Center, priority 2007, published 2008):

How the values were obtained:
RARα/N-CoR interaction = target: T1, RARα/N-CoR interaction (Homo sapiens, UniProt P10276); assay: Mammalian two hybrid, Gal-N-CoR / RARαVP16, in MPRO promyelocytes; assay type: cell-based; conditions: ATRA six hours, KN62 48 hours
T1 construct: expressed in transfected cells; host or cells: MPRO promyelocytes (murine), electroporated
Source text: (§1) Transient transfections and luciferase assays. Murine PT67 fibroblasts were transfected utilizing calcium phosphate precipitation. All hematopoietic cell lines were transiently transfected by electroporation as previously detailed (Johnson, B. et al., Molecular and Cellular Biology 19:3372-3382 (1999)). In the transient transfections the LXSN vector (M28248) served as the expression vector for the wild type and site-directed mutagenized CaMKII and RARα coding region cDNAs. Human cDNA homologous to the coding region of rat CaMKIINα, a CaMKII inhibitory protein, was obtained by RT-PCR from HL60 RNA and cloned into the LXSN vector. The RA-responsive luciferase reporter harbors the RARE from the RARβ2 promoter as previously detailed (Si, J., and Collins, S. J., Blood 100:4401-4409 (2002)). The PON838 plasmid, a β-galactosidase reporter driven by the β-actin promoter, was used as an internal control to determine transfection efficiency for calculating relative luciferase activity.

[1] = tested on: NB4 promyelocytic leukemia cell line; assay: Differentiation of NB4 cells (morphology, Cd11b); assay type: cell-based, human; conditions: five days; for morphologic granulocytic differentiation of NB4: single agent, KN-62 5 μM, ATRA 10^−9 M
Procedure: FIG. 7. KN-62 regulates the differentiation of myeloid leukemia cell lines. (A) Wright Giemsa-stained HL-60 cells either (a) uninduced or treated for five days with (b) KN62 or (c) ATRA. (d) CD11b expression in HL-60 cells after five days exposure to KN62 (5 μM) or ATRA (1 μM). (B) Wright-Giemsa stained NB4 cells treated for five days with KN-62 (5 μM) and ATRA as indicated. […] (C) Cd11b expression of NB4 cells treated for five days with the indicated concentrations of RA and/or KN-62. (D) Western blots with the indicated antibodies were performed on HL60 cell lysates following incubation with KN62 for the indicated period of time. (E) Western blots of NB4 cell lysates following a five day incubation with the indicated compounds.
Antibodies and chemical reagents. Antibodies against RARα, βtubulin, CaMKIIα, CaMKIIβ, CaMKIIγ, CaMKIIδ, CaMKIα, as well as phosphospecific antibodies against CaMKII were all purchased from Santa Cruz Biotechnology. Antibodies against N-CoR and SMRT were from Upstate Biotechnology. CaMKIV antibody was from BD Biosciences. Anti-FLAG antibody was from Sigma while anti-HA antibody from Novachem. Quantitation of CD11b surface antigen expression was performed utilizing the fluorescent-activated cell sorter (FACS) with PE-conjugated anti-CD11b antibody from Becton Dickinson. KN-62, KN-93 and ionomycin were obtained from Calbiochem. ATRA and calmodulin agarose beads were from Sigma.

[2] = tested on: RAR transcriptional activity in HL60 cells; assay: RARE-driven luciferase reporter in HL60 cells; assay type: cell-based, human; conditions: KN62 5 uM, KN93 5 uM, ATRA 1 uM, six hours
Procedure: FIG. 1. CaM kinase isoform expression in hematopoietic cells. (A) The activity of an ATRA-responsive luciferase reporter (βRARE-tk-Luc, 25 μg) was assessed in electroporated HL60 cells six hours after treatment with the indicated concentrations of ionomycin and ATRA. (B) The activity of the luciferase reporter (βRARE-tk-Luc, 25 μg) was assessed in HL60 six hours after treatment with KN62 (5 uM), KN93 (5 uM) and ATRA (1 uM). (C) Western blots were performed utilizing the indicated antibodies. F9 (column 6) is a mouse embryonal carcinoma cell line. BaF3 (column 7) is a cultured pre-B cell line. BM cells (column 8) are kit-ligand dependent normal murine hematopoietic precursors. PT67 murine fibroblasts individually transduced with either rat CaMKIIα, human CaMKIα or human CaMKIV (column 9) together with brain lysates (column 1) serve as positive controls for the respective antibodies. (D) CaMK assays were performed on HL-60 cell lysates immunoprecipitated with the indicated antibodies.
as §1

K-562 cells = assay: Differentiation of K-562 cells; assay type: cell-based, human
Source text: Pharmacological CaMK inhibitors trigger myeloid leukemia cell differentiation. Particularly compelling evidence for the physiological importance of the CaMKII—mediated regulation of RAR activity is our experimental observation that KN-62, a pharmacological inhibitor of the CaMKs, enhances both RAR transcriptional activity (FIG. 1B) and the differentiation of certain myeloid leukemia cell lines (FIG. 7). Acute myelogenous leukemia (AML) is a heterogenous disease, and successful therapy with RA has been generally confined to those leukemias harboring RARα chromosome translocations.
Inhibitors of CaMKII inhibit the proliferation of myeloid leukemia cell lines. To determine whether inhibiting CaMKIIγ activity might have any effect on myeloid leukemia cell proliferation/viability, we treated K562 cells with the CaMK inhibitor KN93. […] The KN93 induced inhibition of K562 cell proliferation was accompanied by a reduction in the levels of the activated (autophosphorylated) CaMKIIγ (FIG. 12A, row 1).

T1 sequence (P10276 whole entry): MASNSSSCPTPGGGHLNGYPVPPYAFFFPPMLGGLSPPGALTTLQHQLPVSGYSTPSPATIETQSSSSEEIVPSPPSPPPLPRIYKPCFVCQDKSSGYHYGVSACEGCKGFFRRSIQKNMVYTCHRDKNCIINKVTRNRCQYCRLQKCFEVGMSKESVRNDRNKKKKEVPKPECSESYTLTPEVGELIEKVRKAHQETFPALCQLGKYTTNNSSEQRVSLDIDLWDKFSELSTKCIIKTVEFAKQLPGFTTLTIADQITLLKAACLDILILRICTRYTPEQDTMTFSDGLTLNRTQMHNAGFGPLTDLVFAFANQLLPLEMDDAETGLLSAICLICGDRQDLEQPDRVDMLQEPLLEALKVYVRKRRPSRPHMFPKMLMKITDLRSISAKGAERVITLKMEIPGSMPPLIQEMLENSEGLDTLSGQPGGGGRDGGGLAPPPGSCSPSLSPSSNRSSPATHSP

SMILES	(UAS)5-driven luciferase reporter activity (RARα/N-CoR interaction) (RARα/N-CoR interaction)	morphologic granulocytic differentiation of NB4 [1]	RAR transcriptional activity (βRARE-tk-Luc reporter) [2]	granulocytic differentiation of NB4 (morphology, Cd11b surface antigen) ([1]; KN-62 (5 μM) in combination with RA 10^−9M-10^−10M)	differentiation of K-562 (K-562 cells; preliminary studies, not shown)	morphologic differentiation of K562 (K-562 cells; KN93 treated K562)
CC1=C(/C=C/C(C)=C/C=C/C(C)=C/C(=O)O)C(C)(C)CCC1 [ATRA, All-trans retinoic acid]	marked decrease	little differentiation	–	–	–	–
CN([C@@H](Cc1ccc(OS(=O)(=O)c2cccc3cnccc23)cc1)C(=O)N1CCN(c2ccccc2)CC1)S(=O)(=O)c1cccc2cnccc12 [KN-62]	significantly inhibits	relatively poor inducer	enhance	marked increase	does not induce	–
COc1ccc(S(=O)(=O)N(CCO)c2ccccc2CN(C)C/C=C/c2ccc(Cl)cc2)cc1 [KN-93]	–	–	enhance	–	–	no effect
